Experimental data reported in patent US8664399B2, “Substituted heterocyclic compounds as ion channel modulators” (Gilead Sciences, Inc., priority 2008, dated 2014).

Tests used:
Format in all cases: cell-based
[1] = molecular target: T1, human cardiac sodium channel, hNav1.5 (Homo sapiens, UniProt Q14524); experiment: Late INa screening assay (automated whole cell patch clamp, PatchXpress; late current generated with 10 μM Tefluthrin); conditions: HEK293 cells expressing hNav1.5; for inhibition at 10 µM: 10 μM test compound, read-out: Late Ina % blk (10 μM test cmpd)
T1 construct: host or cells: HEK293
Procedure: The late sodium current (Late INa) and peak sodium current (Peak INa) assays were performed on an automated electrophysiology platform, PatchXpress 7000A (MDS Analytical Technologies, Sunnyvale, Calif.), which uses the whole cell patch clamp technique to measure currents through the cell membrane of up to 16 cells at a time. The assay uses an HEK293 (human embryonic kidney) cell line heterologously expressing the wild-type human cardiac sodium channel, hNav1.5, purchased from Millipore (Billerica, Mass.). No beta subunits were coexpressed with the Na channel alpha subunit. Cells were maintained with standard tissue culture procedures and stable channel expression was maintained with 400 μg/ml Geneticin in the culture medium. Cells isolated for use on PatchXpress were incubated for 5 minutes in Versene 1X and then for 2 minutes in 0.0125% Trypsin-EDTA (both at 37° C.) to ensure that 80-90% of the cells are single and not part of a cell cluster. Experiments were carried out at 24-27° C.
For both the Late INa and Peak INa assays, series resistance compensation was set to 50% and whole-cell compensation is performed automatically. Currents were low-pass filtered at 10 kHz and digitized at 31.25 kHz. Currents through open sodium channels were automatically recorded and stored in the DataXpress2 database (MDS Analytical Technologies, Sunnyvale, Calif.). Analysis is performed using DataXpress2 analysis software and data are compiled in Excel.
Compound stocks were routinely made in glass vials to 10 mM in dimethyl sulfoxide (DMSO). In some cases, when compounds were not soluble in DMSO, they were made in 100% ethanol. Stocks were sonicated as necessary. The extracellular solution for screening Late INa was composed of: 140 mM NaCl, 4 mM KCl, 1.8 mM CaCl2, 0.75 mM MgCl2, and 5 mM HEPES with pH adjusted to 7.4 using NaOH. The extracellular solution for screening Peak INa was composed of: 20 mM NaCl, 120 mM N-methyl-D glucamine, 4 mM KCl, 1.8 mM CaCl2, 0.75 mM MgCl2, and 5 mM HEPES with pH adjusted to 7.4 using HCl. The intracellular solution used to perfuse the inside of the cells for both the Late INa and Peak INa assays contained: 120 mM CsF, 20 mM CsCl, 5 mM EGTA, 5 mM HEPES and pH adjusted to 7.4 with CsOH. […] The 0Na extracellular solution used at the end of each experiment for the Late INa and Peak INa assays to measure baseline current contained: 140 mM N-methyl-D-glucamine; 4 mM KCl; 1.8 mM CaCl2; 0.75 mM MgCl2; 5 mM HEPES and pH was adjusted to 7.4 with HCl.
For the Late INa assay, sodium channels were activated every 10 seconds (0.1 Hz) by depolarizing the cell membrane to −20 mV for 250 milliseconds (ms) from a holding potential of −120 mV. In response to a −20 mV voltage step, typical Nav1.5 sodium currents activate rapidly to a peak negative current and then inactivate nearly completely within 3-4 ms.
All compounds were tested to determine their activity in blocking the late sodium current. Late INa current was generated by adding 10 μM Tefluthrin (pyrethroid) to the extracellular solution while recording Na currents.

hERG potassium channel = molecular target: T2, hERG potassium channel (Homo sapiens, UniProt Q12809); experiment: hERG screening assay (PatchXpress automated patch clamp, CHO cell line); conditions: CHO cells; for hERG Patch Clamp hERG % blk (1 μm test cmpd): 1 μm test compound; for hERG Patch Clamp hERG % blk (10 μm test cmpd): 10 μm test compound
T2 construct: expressed in transfected cells; host or cells: CHO (Chinese Hamster Ovary)
Procedure: Compounds were screened to test their activity in blocking the hERG potassium channel. The hERG channel is heterologously expressed in a CHO (Chinese Hamster Ovary) cell line. Cells were maintained with standard tissue culture procedures and stable channel expression is maintained with 500 μg/ml G418 in the culture medium. Cells were harvested for testing on the PatchXpress automated patch clamp with Accumax (Innovative Cell Technologies, San Diego, Calif.) to isolate single cells.
The following solutions were used for electrophysiological recordings. The external solution contains: 2 mM CaCl2; 2 mM MgCl2; 4 mM KCl; 150 mM NaCl; 10 mM Glucose; 10 mM HEPES (pH 7.4 with 1M NaOH, osmolarity). The internal solution contained: 140 mM KCl, 10 mM MgCl2, 6 mM EGTA, 5 mM HEPES, 5 mM ATP (pH adjusted to 7.25 with KOH).
hERG channels are activated when the voltage is stepped to +20 mV from the −80 mV holding potential. During a 5 second step at +20 mV, the channels activate and then largely inactivate, so the currents are relatively small. Upon returning to −50 mV from +20 mV, hERG currents transiently become much larger as inactivation is rapidly removed and then the channel closes. The first step to −50 mV for 300 ms is used as a baseline for measuring the peak amplitude during the step to −50 mV after channel activation. The peak current at −50 mV was measured both under control conditions and after addition of compound.
All compounds were prepared as 10 mM DMSO stocks in glass vials. Stock solutions were mixed by vigorous vortexing and sonication for about 2 minutes at room temperature. For testing, compounds were diluted in glass vials using an intermediate dilution step in pure DMSO and then further diluted to working concentrations in external solution. Dilutions were prepared no longer than 20 minutes before use.
After achieving the whole-cell configuration, cells were monitored for 90 seconds to assess stability and washed with external solution for 66 seconds. The voltage protocol described above was then applied to the cells every 12 seconds and throughout the whole procedure. Only cells with stable recording parameters and meeting specified health criteria were allowed to enter the compound addition procedure.
External solution containing 0.1% DMSO (vehicle) was applied to the cells first to establish the control peak current amplitude. After allowing the current to stabilize for 3 to 5 minutes, 1 μM and then 10 μM test compounds was applied. Each compound concentration was added 4 times and cells were kept in test solution until the effect of the compound reaches steady state or for a maximum of 12 minutes. After addition of test compound, a positive control (1 μM Cisapride) was added and must block >95% of the current for the experiment to be considered valid. Washout in the external solution compartment was performed until the recovery of the current reaches steady state. Data were analyzed using DataXpress, Clampfit (Molecular Devices, Inc., Sunnyvale) and Origin 7 (Originlab Corp.)

[2] = molecular target: T3, human Nav1.7 (hNav1.7+β1 subunits) channels expressed in HEK293 cells (Homo sapiens, UniProt Q15858); experiment: Nav1.7 screening assay (fluorescent dye-based membrane potential assay, veratridine); conditions: veratridine 50 μmol/L, read-out: IC50 for reduction of Nav1.7 Na+ current
T3 construct: expressed in transfected cells; host or cells: HEK293

T2 sequence (Q12809 whole entry): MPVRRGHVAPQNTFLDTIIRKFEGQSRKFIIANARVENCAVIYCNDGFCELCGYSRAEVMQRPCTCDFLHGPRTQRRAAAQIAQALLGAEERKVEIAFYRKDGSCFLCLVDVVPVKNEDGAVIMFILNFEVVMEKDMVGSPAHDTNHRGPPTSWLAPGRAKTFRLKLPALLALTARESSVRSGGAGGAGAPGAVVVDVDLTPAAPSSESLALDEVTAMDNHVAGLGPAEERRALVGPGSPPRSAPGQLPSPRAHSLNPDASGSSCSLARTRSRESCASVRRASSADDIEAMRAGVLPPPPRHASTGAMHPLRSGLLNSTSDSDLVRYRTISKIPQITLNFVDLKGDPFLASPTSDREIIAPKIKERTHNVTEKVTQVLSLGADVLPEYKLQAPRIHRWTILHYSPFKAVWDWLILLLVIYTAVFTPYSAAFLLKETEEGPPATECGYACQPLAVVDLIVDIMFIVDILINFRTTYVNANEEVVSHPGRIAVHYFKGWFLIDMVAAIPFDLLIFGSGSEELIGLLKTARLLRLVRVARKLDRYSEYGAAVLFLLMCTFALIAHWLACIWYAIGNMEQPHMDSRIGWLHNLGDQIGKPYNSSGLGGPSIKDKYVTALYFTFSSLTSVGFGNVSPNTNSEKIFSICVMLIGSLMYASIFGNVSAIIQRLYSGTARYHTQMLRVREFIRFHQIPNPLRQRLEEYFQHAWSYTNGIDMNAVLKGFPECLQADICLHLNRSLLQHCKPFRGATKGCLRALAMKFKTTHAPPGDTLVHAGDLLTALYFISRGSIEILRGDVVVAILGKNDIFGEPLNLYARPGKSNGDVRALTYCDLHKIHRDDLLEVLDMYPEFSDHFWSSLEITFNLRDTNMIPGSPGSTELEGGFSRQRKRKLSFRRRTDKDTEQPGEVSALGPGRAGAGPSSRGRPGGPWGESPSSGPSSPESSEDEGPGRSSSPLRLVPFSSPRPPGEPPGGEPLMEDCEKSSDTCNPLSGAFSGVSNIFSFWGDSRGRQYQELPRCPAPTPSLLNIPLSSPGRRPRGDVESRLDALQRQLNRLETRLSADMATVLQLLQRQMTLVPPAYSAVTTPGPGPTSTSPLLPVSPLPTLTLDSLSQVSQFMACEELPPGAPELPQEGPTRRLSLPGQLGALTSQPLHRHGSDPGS
T1 sequence (Q14524 whole entry): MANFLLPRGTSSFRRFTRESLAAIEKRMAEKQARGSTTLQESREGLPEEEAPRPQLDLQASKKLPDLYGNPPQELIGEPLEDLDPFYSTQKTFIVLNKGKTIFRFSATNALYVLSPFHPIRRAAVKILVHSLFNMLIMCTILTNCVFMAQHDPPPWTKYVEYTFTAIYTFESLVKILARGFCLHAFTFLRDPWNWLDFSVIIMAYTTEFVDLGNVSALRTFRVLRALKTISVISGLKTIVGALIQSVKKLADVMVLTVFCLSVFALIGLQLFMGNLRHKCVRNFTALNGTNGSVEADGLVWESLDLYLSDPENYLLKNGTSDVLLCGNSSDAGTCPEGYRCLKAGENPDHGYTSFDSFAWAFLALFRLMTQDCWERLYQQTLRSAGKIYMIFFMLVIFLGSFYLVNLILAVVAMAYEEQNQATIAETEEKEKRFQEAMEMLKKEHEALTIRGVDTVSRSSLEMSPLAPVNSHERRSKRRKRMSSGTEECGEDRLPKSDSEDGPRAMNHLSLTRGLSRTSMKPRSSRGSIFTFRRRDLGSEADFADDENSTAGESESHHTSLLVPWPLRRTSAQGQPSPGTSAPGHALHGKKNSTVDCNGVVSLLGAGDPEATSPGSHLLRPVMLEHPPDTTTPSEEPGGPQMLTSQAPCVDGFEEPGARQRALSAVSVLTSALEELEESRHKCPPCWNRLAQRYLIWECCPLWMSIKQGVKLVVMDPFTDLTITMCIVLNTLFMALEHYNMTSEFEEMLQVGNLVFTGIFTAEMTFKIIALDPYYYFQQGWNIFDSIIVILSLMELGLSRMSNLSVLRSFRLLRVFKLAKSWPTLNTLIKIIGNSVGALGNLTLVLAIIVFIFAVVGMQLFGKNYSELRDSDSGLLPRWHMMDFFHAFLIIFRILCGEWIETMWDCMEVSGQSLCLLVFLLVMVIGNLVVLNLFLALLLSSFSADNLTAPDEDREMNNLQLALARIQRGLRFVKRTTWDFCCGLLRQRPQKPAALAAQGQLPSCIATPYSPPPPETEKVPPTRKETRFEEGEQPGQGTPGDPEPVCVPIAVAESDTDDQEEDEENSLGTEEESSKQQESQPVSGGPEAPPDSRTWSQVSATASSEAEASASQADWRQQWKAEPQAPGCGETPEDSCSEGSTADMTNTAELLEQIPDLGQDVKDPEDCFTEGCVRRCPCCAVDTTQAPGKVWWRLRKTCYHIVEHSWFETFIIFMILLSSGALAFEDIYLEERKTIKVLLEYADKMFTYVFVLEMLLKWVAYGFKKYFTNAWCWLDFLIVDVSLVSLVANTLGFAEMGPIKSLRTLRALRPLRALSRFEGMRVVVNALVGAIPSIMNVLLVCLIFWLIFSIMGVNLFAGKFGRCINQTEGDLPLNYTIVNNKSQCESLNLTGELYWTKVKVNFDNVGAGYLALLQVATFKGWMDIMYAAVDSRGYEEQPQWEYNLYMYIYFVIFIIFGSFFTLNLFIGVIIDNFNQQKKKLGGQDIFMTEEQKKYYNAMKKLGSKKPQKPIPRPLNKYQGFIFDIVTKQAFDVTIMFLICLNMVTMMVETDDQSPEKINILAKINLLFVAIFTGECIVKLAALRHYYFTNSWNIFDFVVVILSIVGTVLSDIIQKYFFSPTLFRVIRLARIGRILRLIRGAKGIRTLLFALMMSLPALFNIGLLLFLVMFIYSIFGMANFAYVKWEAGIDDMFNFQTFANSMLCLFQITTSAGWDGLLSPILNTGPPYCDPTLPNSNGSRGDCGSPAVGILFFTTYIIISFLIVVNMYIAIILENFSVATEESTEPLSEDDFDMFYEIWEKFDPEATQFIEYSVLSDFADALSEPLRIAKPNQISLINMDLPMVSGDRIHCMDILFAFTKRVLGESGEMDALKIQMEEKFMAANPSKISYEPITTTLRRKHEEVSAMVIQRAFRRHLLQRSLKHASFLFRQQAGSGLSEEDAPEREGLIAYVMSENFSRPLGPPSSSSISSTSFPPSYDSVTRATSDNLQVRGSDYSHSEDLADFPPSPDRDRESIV

SMILES	inhibition at 10 µM [1]	hERG Patch Clamp hERG % blk (1 μm test cmpd) (hERG potassium channel)	hERG Patch Clamp hERG % blk (10 μm test cmpd) (hERG potassium channel)	IC50 [2]	Late Ina % blk (1 μM test cmpd) ([1]; 1 μM test compound)
CCOC(=O)c1c(Cn2cnnn2)nc2ccc(Cl)cc2c1-c1ccccc1 [PT-010, ethyl 6-chloro-4-phenyl-2-(1H-tetrazol-1-ylmethyl)quinoline-3-carboxylate]	41.6%	18.5%	66.0%		
Cc1nc2ccc(Cl)cc2c(-c2ccccc2)c1-c1nnc(Cc2ccc(Cl)cc2)o1 [PT-005, 6-chloro-3-[5-(4-chlorobenzyl)-1,3,4-oxadiazol-2-yl]-2-methyl-4-phenylquinoline]	43.6%	10.5%	32.5%	0.2 µM	
Cc1nc2ccc(Cl)cc2c(-c2ccccc2)c1C(=O)OCC1CC1 [PT-016, cyclopropylmethyl 6-chloro-2-methyl-4-phenylquinoline-3-carboxylate]	59%	30.5%	73.0%	37.5 µM	
Cc1nc2ccc(Cl)cc2c(-c2ccccc2)c1C(=O)OC(c1ccccc1)C1CC1 (centres unmarked) [PT-012, cyclopropyl(phenyl)methyl 6-chloro-2-methyl-4-phenylquinoline-3-carboxylate]	20.5%	10.5%	13.5%		
CCOC(=O)c1c(CN2C(=O)CCC2=O)nc2ccc(Cl)cc2c1-c1ccccc1 [PT-009, ethyl 6-chloro-2-[(2,5-dioxopyrrolidin-1-yl)methyl]-4-phenylquinoline-3-carboxylate]	53.3%	24.0%	65.5%		
Cc1nc2ccc(Cl)cc2c(-c2ccccc2)c1C(=O)N1CCC(c2ccc(C(N)=O)cc2)CC1 [PT-017, 4-{1-[(6-chloro-2-methyl-4-phenylquinolin-3-yl)carbonyl]piperidin-4-yl}benzamide]	29.4%	28.5%	51.0%		
Cc1nc2ccccc2c(C)c1C(=O)OCc1ccc(Cl)cc1 [PT-019, 4-chlorobenzyl 2,4-dimethylquinoline-3-carboxylate]	70.1%	10.0%	62.5%		22.5%
Cc1nc2ccc(Cl)cc2c(-c2ccccc2)c1C(=O)O[C@@H](C)c1ccccc1 [PT-014, (1S)-1-phenylethyl 6-chloro-2-methyl-4-phenylquinoline-3-carboxylate]	36.1%				
Cc1nc2ccc(Cl)cc2c(-c2ccccc2)c1C(=O)OC(C)(C)C [PT-002, Tert-butyl 6-chloro-2-methyl-4-phenylquinoline-3-carboxylate]	61.1%				
CCOC(=O)c1c(C)nc2ccc(Cl)cc2c1-c1ccccc1F [PT-030, ethyl 6-chloro-4-(2-fluorophenyl)-2-methylquinoline-3-carboxylate]	55.4%				
Cc1nc2ccc(Cl)cc2c(-c2ccccc2Cl)c1C(=O)OC(C)(C)C [PT-020, Tert-butyl 6-chloro-4-(2-chlorophenyl)-2-methylquinoline-3-carboxylate]	32.9%				
CCOC(=O)c1c(COc2ccc(Cl)cc2OC)nc2ccc(Cl)cc2c1-c1ccccc1 [PT-011, ethyl 6-chloro-2-[(4-chloro-2-methoxyphenoxy)methyl]-4-phenylquinoline-3-carboxylate]	18.1%				
CCOC(=O)c1c(Cn2ccnc2)nc2ccc(Cl)cc2c1-c1ccccc1 [PT-008, ethyl 6-chloro-2-(1H-imidazol-1-ylmethyl)-4-phenylquinoline-3-carboxylate]	41.1%	43.0%	94.5%		
